The test system of data set [1] is secretion of proinflammatory cytokines such as tumour necrosis factor α (TNF-α), IL-10, IL-12 and IFN-γ. Briefly: in vitro secretion of proinflammatory cytokines. The format is cell-based. The settings on record: in vitro studies. From the text: (§1) The compound of formula I, 1,3-dicyclopropylmethyl-8-aminoxanthine, is also known by the proposed generic name cipamfylline. The compound and a method of its preparation is disclosed in U.S. Pat. No. 5,734,051 which is hereby incorporated by reference in its entirety.

The format of data set [2] is physicochemical. An excerpt:
More specifically, the solvent comprises a non-toxic glycol or glycol ether selected from the group consisting of propylene glycol, butylene glycol, diethylene glycol and diethylene glycol ether. […] The advantageous dissolution properties of propylene glycol may be explained by the solubility properties of this particular solvent, as determined by the Hildebrand solubility coefficient (J H Hildebrand and R L Scott, The Solubility of Non-Electrolytes, Reinhold, N.Y., 1949). […] Thus propylene glycol has a Hildebrand coefficient within ±2 units of that of cipamfylline which makes it an effective solvent for this active component.

Another data set concerns atopic dermatitis. Briefly: phase II left/right study, cipamfylline cream vs vehicle or Locoid cream (Example 2). The format is in vivo, Humans. The settings on record: for decrease of total severity score: 1 g twice daily, two weeks. How it is done:
In a phase II, multi-centre, randomised, double-blind left/right study comparing cipamfylline cream 1.5 mg/g (formulation B) with the reference vehicle without cipamfylline and with Locoid cream 0.1% (hydrocortisone-17-butyrate 0.1% cream) in patients suffering from atopic dermatitis, patients were randomised to either group (1) cipamfylline cream 1.5 mg/g in reference vehicle vs vehicle or (2) cipamfylline cream 1.5 mg/g in reference vehicle vs Locoid cream. One g of each cream were applied twice daily for two weeks. A total number of 108 patients with a clinical diagnosis of atopic dermatitis, with symmetrical lesions of atopic dermatitis on their arms with a minimum score of 6 in the total severity score (ratings of erythema, oedema/papulation, oozing/crusting, excoriations and lichenification on a scale from 0-3) were included. Excluded were patients with suspected infection in the treatment areas, patients who were receiving other treatment for atopic dermatitis or who were pregnant or planning to become pregnant in the course of the study.

Another data set in a line: solubility. The format is physicochemical. As to the method:
Cipamfylline has a pronounced inner crystal bonding resulting in a high melting point (about 310-312° C.) and some degree of hydrophobicity. […] On the other hand, effective delivery of the active component into the epidermis where it can exert its effect requires that the compound be present in a dissolved state in said composition.

A further data set deals with PDE4. Briefly: in vitro PDE4 inhibition. The format is biochemical. The settings on record: in vitro studies.
Description: as §1

Another data set deals with lymphocyte proliferation. The data set can be described thus: in vitro lymphocyte proliferation. The format is cell-based. The conditions noted are these: in vitro studies.
Description: as §1

The next data set has as its system skin. The data set can be described thus: skin irritation by the solvent. The settings on record: propylene glycol in itself. It is filed as in vivo. From the text:
Apart from being a solvent for cipamfylline, propylene glycol as a secondary penetration enhancer, i.e. a substance which is capable of penetrating the stratum corneum and “draw” low-molecular components such as therapeutically active components in the vehicle into the epidermis. […] For this reason, propylene glycol has previously been thought to be unsuitable for inclusion as a solvent in compositions intended for the treatment of atopic dermatitis. However, the present vehicle has been specifically designed to exclude all excipients which are capable of penetrating into the epidermis (or being “drawn” into the epidermis by the solvent) and which are not essential for formulation purposes, resulting in a composition which, according to the clinical tests described in Example 3 herein, gives rise to fewer irritative reactions in skin on which the composition is applied compared to a conventional reference formulation. This, of course, is particularly important for dermal formulations intended for application on inflamed, and therefore highly irritated skin so as to avoid a painful burning sensation at the site of application and more long-term irritation such as pain or itching.

The structures appear in SMILES notation. Some results are limits rather than exact numbers.

Consider `Nc1nc2c([nH]1)c(=O)n(CC1CC1)c(=O)n2CC1CC1` [cipamfylline, 1,3-dicyclopropylmethyl-8-aminoxanthine], for which the “inhibition of the secretion of proinflammatory cytokines (TNF-α, IL-10, IL-12, IFN-γ)” value in data set [1] is reported as “inhibitor”. Besides, the “Hildebrand coefficient (solubility parameter δ)” value in data set [2] is on record as “about 13.4 (cal/cm^3)^1/2”. The “decrease of total severity score” value is given as 38% in the data set with atopic dermatitis (group (1) cipamfylline cream 1.5 mg/g (formulation B) vs vehicle, end of study) and 30% in the data set with atopic dermatitis (group (2) cipamfylline cream 1.5 mg/g (formulation B) vs Locoid cream 0.1%, end of treatment). Further, the “patients with local adverse reactions (burning, stinging, pruritus)” value in the data set with atopic dermatitis (treated side, cipamfylline cream 1.5 mg/g vs vehicle) was 15 % of the patients. The molecule also came in with a solubility in “solubility” (water) of under 50 µg/mL. In addition, the “solubility with water as co-solvent” value in “solubility” (water present as a co-solvent in an amount of about 25% or more) is recorded as “greatly decreased”. In addition, in the data set with PDE4, the “inhibition of PDE4” value is “potent and selective inhibitor”. For the same molecule, the “effect on lymphocyte proliferation” value in the data set with lymphocyte proliferation is on record as “no effect”.
Regarding `CC(O)CO` (centres unmarked) [propylene glycol], the skin irritation result in the data set on skin is given as “does not in itself give rise to any significant skin irritation”. Moreover, the “Hildebrand coefficient (solubility parameter δ)” value in data set [2] is given as “about 14.8 (cal/cm^3)^1/2”.

For the origin of these results see patent publication US20030175314A1, “Pharmaceutical composition for dermal application” (priority 2001, published 2003).
